The text below walks through data of paper PMC10747479, “Improving Bioaccessibility and Bioavailability of Isoflavone Aglycones from Chickpeas by Germination and Forming β-Cyclodextrin Inclusion Complexes” (Pharmaceutics, 2023).

Series [1] can be described thus: Oral pharmacokinetics of FMN and BCA in rat plasma after CSE or CSE/β-CD inclusion complex. Format: in vivo, Sprague–Dawley (SD) rats. As to conditions: rats; for AUC(0-inf) / AUC(0-t) / Cmax / half-life / k el / Tmax: male, Sprague-Dawley, rat; for AUC(0-inf) / AUC(0-t) / Cmax / half-life / k el / Tmax / CL / Vd: plasma, FMN approx. 5 mg/kg, BCA approx. 18 mg/kg; for AUC(0-inf) / AUC(0-t) / Cmax / half-life / k el: po; for k el: read-out: Ke (converted); for time at which concentration in rat plasma reached the peak / relative bioavailability in the inclusion complex relative to the CSE: oral; for time at which concentration in rat plasma reached the peak: given the CSE or the inclusion complex; for relative bioavailability in the inclusion complex relative to the CSE: ratio of the AUC. On the procedure:
(§1) The specific pathogen-free (SPF) male Sprague–Dawley (SD) rats (average body weight, 220 ± 10 g) aged eight weeks old were purchased from Shanghai Slake Laboratory Animal Co., Ltd. (Shanghai, China). After being raised in an environment-controlled feeding room for 1 week, the SD rats were divided into three groups (groups A, B, and C), with six in each group. They were fasted for 12 h and supplied with unlimited water before the experiments. In group A, 200 mg of the CSE/β-CD inclusion complex (FMN: 1.04 mg, BCA: 3.58 mg) was weighed and prepared into a 3 mL suspension by pure water and then given to each rat by gavage. In group B, a certain amount of CSE with FMN of the same quality as that in the inclusion complex was weighed and prepared into a 3 mL suspension by pure water and then given to each rat by gavage. In group C, a certain amount of CSE, ensuring that the content of BCA was the same as that in the inclusion complex, was weighed and prepared into s 3 mL suspension by pure water and then given to each rat by gavage. The dosage of FMN and BCA in rats was controlled at approximately 5 mg/kg and 18 mg/kg, respectively. Approximately 300 μL rat retro-orbital blood samples were obtained and transferred to heparinized tubes […] at 0.083, 0.25, 0.50, 0.75, 1, 2, 4, 6, 8, 12, and 24 h following intragastric administration. After centrifuging at 3500 rpm for 10 min, the upper plasma was put in clean tubes and placed at −20 °C before use. The rats were killed using the carbon dioxide box after taking blood at the last time point. A batch of new SD rats was raised with the same grouping and administration method for the study of tissue composition. At 0.25 h after intragastric administration, the rats were killed, and the organs including hearts, livers, spleens, lungs, kidneys, and brains were quickly separated, put into centrifuge tubes, and temporarily stored at 4 °C.
To comparatively evaluate the pharmacokinetics of the isoflavones in CSE and the CSE/β-CD inclusion complex, the content of FMN and BCA in rat plasma was determined on a UPLC-MS/MS system equipped with a Waters ACQUITY UPLC and a Xevo TQ-S micro ESI-MS/MS system (Milford, America). An ACQUITY UPLC BEH-C18 (2.1 mm × 100 mm, 1.7 μm) column was applied for the separation work using 0.05% formic acid in water (A) and acetonitrile (B) as the mobile phase with a flow rate of 0.2 mL/min and a column temperature of 30 °C. The gradient elution program was as follows: 0-6 min, A 50%. The selected multiple reaction monitoring (MRM) modes in the negative ESI mode of the mass spectrometer were used for all the analytes, and the capillary voltage was set at 2.66 kV with a source temperature of 150 °C using nitrogen as the desolvation gas and cone gas. The CHL was used as an internal standard (IS).
All plasma samples were stored at −20 °C and thawed at room temperature. To precipitate the protein, a 100 μL plasma sample was precisely aspirated, adding 40 μL of the IS solutions and 260 μL of acetonitrile, and vortexing for 3 min. Then the mixture was centrifuged at 13,000 rpm for 10 min and the 5 μL supernatant was injected for = UPLC-MS/MS analysis.
Compared with the rats fed the CSE, the rats fed the inclusion complex had higher Cmax, longer elimination half-lives (t1/2), larger areas under the concentration–time curve (AUC), and lower apparent volumes of distribution (Vd) and plasma clearance (CL). […] This caused the content of FMN and BCA in rats to be higher and have a longer retention time. The relative bioavailability of the two isoflavones in the inclusion complex relative to the CSE was calculated using the ratio of the AUC. […] It is reported that β-CD and its derivatives can inhibit the activity of P-glycoprotein, which is closely related to the bioavailability of oral drugs. The decrease in P-glycoprotein activity can reduce the excretion of drugs from cells.

Series [2] is described as follows: Tissue distribution of FMN and BCA in rats after oral CSE or inclusion complex. Format: in vivo, Sprague–Dawley (SD) rats. As to conditions: 0.25 h after intragastric administration; for distribution characteristics of the contents in rat tissues: CSE or inclusion complex. On the procedure: as §1
The contents of FMN and BCA in the tissues of rats were also determined by the above-established UPLC-MS/MS method.
The tissue was washed with normal saline to remove the residual blood, the water on the surface of the tissue was dried, and the tissue was weighed, cut into small pieces, and put into a centrifuge tube. Then, it was added to normal saline of the same amount as the tissue and ground into a homogenate. Then, 300 μL of the tissue homogenate was placed into a centrifuge tube, adding 60 μL of IS and 840 μL of acetonitrile to precipitate the protein. After centrifuging at 13,000 rpm for 10 min, the supernatant was collected and centrifuged again. Finally, the obtained supernatant was taken for subsequent analysis.

The nature of series [3]: In vitro release in simulated gastric and intestinal fluid. Format: physicochemical. The settings on record: artificial gastric juice and artificial intestinal juice, 37 °C, 100 rpm, up to 24 h. The method, then:
According to the determination method of dissolution and release in Chinese Pharmacopoeia 2020, the in vitro sustained release of the isoflavones in the CSE/β-CD inclusion complex and CSE was determined on a SOTAX AT. 7× dissolution tester (Stetten, Switzerland) with a stirring rate of 100 rpm at 37 °C [16] using FMN and BCA as the evaluation index. Simulated gastric fluid (SGF) and simulated intestinal fluid (SIF) were used as release media. The preparation method of SGF was to mix 16.4 mL of the HCl solution (9.5–10.5% by volume) and 10 g of pepsin into 800 mL water, and finally adjust the volume to 1000 mL of water. The preparation of SIF was to add 6.8 g of potassium dihydrogen phosphate to 500 mL of water (use 0.1 M NaOH to adjust the pH to 6.8), then add 10 g of trypsin, and finally adjust the volume to 1000 mL of water. The CSE/β-CD inclusion complex (400.00 mg, containing 2.08 mg FMN and 7.16 mg BCA), CSE (94.12 mg, containing 2.08 mg FMN), and CSE (205.16 mg, containing 7.16 mg BCA) were weighed and added to 900 mL of release media, respectively. […] The sample was added to 3 times the volume of acetonitrile to remove the protein, then centrifuged at 10000 rpm for 10 min, and the obtained supernatant was analyzed by HPLC. […]

A short description of series [4]: Inclusion ratio and drug loading of the CSE/β-CD inclusion complex. It is filed as physicochemical. As to conditions: for inclusion ratio: CSE with β-CD, optimal conditions: β-CD/CSE 4:1, 40 °C, 400 rpm, 2 h; for drug loading in the CSE/β-CD inclusion complex: optimal conditions. On the procedure:
A saturated aqueous solution method was used to prepare the inclusion complexes. β-CD (456 mg) was dispersed into 20 mL of water and heated with a water bath. CSE was accurately weighed according to the mass ratio of β-CD/CSE at 7:1 (g/g) to 3:1 (g/g) and dissolved in a small amount of ethanol to obtain CSE ethanol suspension, which was slowly dripped into the β-CD aqueous solution under 30 to 70 °C and at a stirring speed of 200 rpm to 1000 rpm. The mixed solution was stirred for 0.5 h to 4 h. After cooling to room temperature, the mixture was placed at 4 °C for 24 h, and then filtered quickly. The filter residue was moistened with a small amount of ethanol and dried to obtain the β-CD/CSE inclusion complex. The amounts of BCA and FMN in the initial CSE (Mc) and filtrate (Mf) were determined under the same conditions as above using an Agilent 1260 Infinity II HPLC. The inclusion ratio of FMN and BCA was used as an evaluation index to optimize the preparation methods. The calculation formula of the inclusion ratio (R%) was as follows:(1) R%=1−Mf/Mc×100% where Mf is the mass of the remaining isoflavones in the filtrate and Mc is the mass of the isoflavones in the CSE initially added.

Where [5] appears, read: oral gavage of CSE/β-CD inclusion complex.

Like-named read-outs stand apart in the source and are kept apart here.

In series [1] (setting [5]), `COc1ccc(-c2coc3cc(O)ccc3c2=O)cc1` [FMN, formononetin] gave an AUC(0-inf) of 72 ± 25.7 ng·h/mL, an AUC(0-t) of 51.5 ± 12.3 ng·h/mL, a Cmax of 21 ± 2.81 ng/mL and a half-life of 4.51 ± 2.07 h. In series [1] (setting [5]), the k el was 5.56e-05 s⁻¹, the CL is given as 75.79 ± 23.47 L/h and the Vd is 441.60 ± 140.88 L. In series [1] (oral gavage of CSE), the AUC(0-inf) was determined as 37 ± 12.9 ng·h/mL, the AUC(0-t) came to 30 ± 15.2 ng·h/mL, the Cmax is 14.4 ± 1.46 ng/mL and the half-life was 3.84 ± 2.1 h. Further, in series [1] (oral gavage of CSE), the k el was 6.39e-05 s⁻¹, the Tmax worked out at 0.25 h, the CL was determined as 148.14 ± 47.18 L/h and the Vd is reported as 722.51 ± 197.97 L. Moreover, in series [1], the “time at which concentration in rat plasma reached the peak” value was found to be 15 min and the “relative bioavailability in the inclusion complex relative to the CSE” value amounted to 171.6%. Moreover, in series [2], the “content in the tissues, inclusion complex compared with CSE” value is “significantly higher” and the “distribution characteristics of the contents in rat tissues” value was “liver > kidneys > lungs > spleen > heart > brain”. Moreover, in series [3], the “solubility and dissolution properties by forming the CSE/β-CD inclusion complex, compared with CSE” value was “significantly improved”. Further, in series [4], the inclusion ratio was determined as 53.31% and the “drug loading in the CSE/β-CD inclusion complex” value is given as 5.2 mg/g.
In series [1] (setting [5]), `COc1ccc(-c2coc3cc(O)cc(O)c3c2=O)cc1` [BCA, biochanin A] gave an AUC(0-inf) of 173 ± 56.3 ng·h/mL, an AUC(0-t) of 102 ± 45.3 ng·h/mL, a Cmax of 22.4 ± 2.45 ng/mL and a half-life of 7.33 ± 3.07 h. In addition, in series [1] (setting [5]), the k el is 3.06e-05 s⁻¹, the CL turned out to be 93.83 ± 29.01 L/h and the Vd stood at 896.37 ± 113.90 L. In series [1] (oral gavage of CSE), the AUC(0-inf) was 61.9 ± 15.5 ng·h/mL, the AUC(0-t) was found to be 37.6 ± 17.7 ng·h/mL, the Cmax was 13.9 ± 3.17 ng/mL and the half-life is 4.63 ± 0.88 h. In series [1] (oral gavage of CSE), the k el is 4.17e-05 s⁻¹, the time to peak (Tmax) worked out at 0.25 h, the CL was 252.24 ± 52.73 L/h and the Vd stood at 1635.82 ± 92.84 L. In series [1], the “time at which concentration in rat plasma reached the peak” value came to 15 min and the “relative bioavailability in the inclusion complex relative to the CSE” value is 270.7%. Moreover, in series [2], the “content in the tissues, inclusion complex compared with CSE” value is recorded as “significantly higher” and the “distribution characteristics of the contents in rat tissues” value is reported as “liver > kidneys > lungs > spleen > heart > brain”. In series [3], the “solubility and dissolution properties by forming the CSE/β-CD inclusion complex, compared with CSE” value is given as “significantly improved”. Besides, in series [4], the inclusion ratio is reported as 81.79% and the “drug loading in the CSE/β-CD inclusion complex” value is recorded as 17.9 mg/g.
